# Experimental data taken from patent US20030176314A1, “Compounds for the treatment of pain” (priority 2001, published 2003).
# Columns and labels:
# [1] = biological target: T1, rat NPFF2 receptor (Rattus norvegicus, UniProt Q9EQD2); assay: Functional assay (agonist potency, intrinsic activity) at cloned rat NPFF2 receptor; assay type: cell-based; conditions: Table 7, intrinsic activity
# T1 construct: The full-length NPFF2 was amplified from rat spinal cord cDNA; expressed in transfected cells; host or cells: not given
# [2] = biological target: T2, norepinephrine (NE) transporter (Rattus norvegicus, UniProt Q63380); assay: Binding at native norepinephrine transporter (NE uptake); conditions: Table 8
# T2 construct: evaluated at native, tissue-derived transporters; from tissue
# Summary of the method: (§1)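 Binding (Ki) at native, tissue-derived rat serotonin and norepinephrine transporters, measured by the Owens (1997) protocol.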
# [3] = biological target: T3, serotonin (5HT) transporter (Rattus norvegicus, UniProt P31652); assay: Binding at native serotonin transporter (5HT uptake); conditions: Table 8
# T3 construct: evaluated at native, tissue-derived transporters; from tissue
# Summary of the method: as §1
# [4] = biological target: T4, human Y1 receptor (Homo sapiens, UniProt P25929); assay: Binding at human neuropeptide Y Y1 receptor; conditions: Table 8; read-out: hY1 Ki
# T4 construct: host or cells: 293 cells, line 293-hY1-5
# T4 sequence (P25929 1-384): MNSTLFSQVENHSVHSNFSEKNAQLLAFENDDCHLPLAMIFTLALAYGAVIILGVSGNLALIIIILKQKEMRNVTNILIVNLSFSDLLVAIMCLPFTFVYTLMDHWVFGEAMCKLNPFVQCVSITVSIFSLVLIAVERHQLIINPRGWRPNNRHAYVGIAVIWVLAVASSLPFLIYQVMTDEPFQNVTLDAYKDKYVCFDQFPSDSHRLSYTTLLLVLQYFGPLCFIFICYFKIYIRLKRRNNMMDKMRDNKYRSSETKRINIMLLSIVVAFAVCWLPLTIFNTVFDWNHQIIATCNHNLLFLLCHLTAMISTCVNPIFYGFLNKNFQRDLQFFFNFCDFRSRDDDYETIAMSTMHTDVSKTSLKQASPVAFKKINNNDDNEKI
# Excerpt: (§2) Neuropeptide receptors: Stably transfected cell lines which may be used for binding experiments include, for the Y1 receptor, 293-hY1-5 (deposited Jun. 4, 1996, under ATCC Accession No. CRL-12121); for the Y2 receptor, 293-hY2-10 (deposited Jan. 27, 1994, under ATCC Accession No. CRL-11837); for the Y4 receptor, L-hY4-3 (deposited Jan. 11, 1995, under ATCC Accession No. CRL 11779); and for the Y5 receptor, L-hY5-7 (deposited Nov. 15, 1995, under ATCC Accession No. CRL 11995).
# (§3) Binding assays using the NPY receptors may be carried out according to the procedures described in U.S. Pat. No. 5,602,024, the disclosure of which is hereby incorporated by reference in its entirety into this application.
# (§4) The binding affinity (Ki) of these compounds were tested according to the protocols described herein at the following receptors; human α1A, α1B, α1D, α2A, α2B, and α2C adrenergic receptors; human Y1, Y2, Y4, and Y5 receptors; and N-Methyl-D-aspartic acid (NMDA) receptor channels. The binding interactions of these compounds were additionally tested at the norepinephrine (NE) transporter (NE uptake) and serotonin (5-hydroxytryptamine (5HT)) transporter (5HT uptake) according to protocols described herein
# [5] = biological target: T5, human Y2 receptor (Homo sapiens, UniProt P49146); assay: Binding at human neuropeptide Y Y2 receptor; conditions: Table 8; read-out: hY2 Ki
# T5 construct: host or cells: 293 cells, line 293-hY2-10
# T5 sequence (P49146 1-381): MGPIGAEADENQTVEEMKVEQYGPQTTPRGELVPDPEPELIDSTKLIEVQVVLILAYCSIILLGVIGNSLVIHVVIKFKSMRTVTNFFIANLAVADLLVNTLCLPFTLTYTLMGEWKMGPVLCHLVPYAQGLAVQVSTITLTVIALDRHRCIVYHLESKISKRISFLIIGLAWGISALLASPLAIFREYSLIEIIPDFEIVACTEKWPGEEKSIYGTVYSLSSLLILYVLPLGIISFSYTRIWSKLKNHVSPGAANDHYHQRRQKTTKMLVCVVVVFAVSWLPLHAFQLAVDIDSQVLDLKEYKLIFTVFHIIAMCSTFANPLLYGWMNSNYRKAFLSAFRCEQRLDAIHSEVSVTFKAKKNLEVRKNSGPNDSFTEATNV
# Excerpt: as §2, §3, §4
# [6] = biological target: T6, human Y4 receptor (Homo sapiens, UniProt P50391); assay: Binding at human neuropeptide Y Y4 receptor; conditions: Table 8; read-out: hY4 Ki
# T6 construct: host or cells: L cells, line L-hY4-3
# Excerpt: as §2, §3, §4
# [7] = biological target: T7, human Y5 receptor (Homo sapiens, UniProt Q15761); assay: Binding at human neuropeptide Y Y5 receptor; conditions: Table 8; read-out: hY5 Ki
# T7 construct: host or cells: L cells, line L-hY5-7
# T7 sequence (Q15761 1-445): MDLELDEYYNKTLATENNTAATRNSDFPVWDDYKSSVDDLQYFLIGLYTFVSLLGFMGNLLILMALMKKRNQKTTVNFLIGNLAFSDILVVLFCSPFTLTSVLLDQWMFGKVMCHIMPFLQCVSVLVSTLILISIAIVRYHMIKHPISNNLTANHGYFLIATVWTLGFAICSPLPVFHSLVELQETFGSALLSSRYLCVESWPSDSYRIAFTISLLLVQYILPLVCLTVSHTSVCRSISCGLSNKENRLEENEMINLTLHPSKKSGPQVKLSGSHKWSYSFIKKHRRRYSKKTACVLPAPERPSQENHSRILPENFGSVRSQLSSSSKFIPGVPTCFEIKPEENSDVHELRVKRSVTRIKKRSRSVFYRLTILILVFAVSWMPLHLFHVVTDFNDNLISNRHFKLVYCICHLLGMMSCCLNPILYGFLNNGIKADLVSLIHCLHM
# Excerpt: as §2, §3, §4
# T6 sequence (P50391 whole entry): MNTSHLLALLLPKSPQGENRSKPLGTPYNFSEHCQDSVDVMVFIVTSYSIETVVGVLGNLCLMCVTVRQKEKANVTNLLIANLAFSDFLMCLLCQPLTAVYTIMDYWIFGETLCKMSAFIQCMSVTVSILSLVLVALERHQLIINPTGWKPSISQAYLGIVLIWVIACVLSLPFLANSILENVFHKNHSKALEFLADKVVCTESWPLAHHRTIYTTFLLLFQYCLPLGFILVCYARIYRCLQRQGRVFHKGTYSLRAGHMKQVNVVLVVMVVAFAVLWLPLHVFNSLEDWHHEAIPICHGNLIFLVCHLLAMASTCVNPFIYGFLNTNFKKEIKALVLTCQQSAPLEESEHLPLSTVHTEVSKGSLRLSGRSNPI
# T3 sequence (P31652 whole entry): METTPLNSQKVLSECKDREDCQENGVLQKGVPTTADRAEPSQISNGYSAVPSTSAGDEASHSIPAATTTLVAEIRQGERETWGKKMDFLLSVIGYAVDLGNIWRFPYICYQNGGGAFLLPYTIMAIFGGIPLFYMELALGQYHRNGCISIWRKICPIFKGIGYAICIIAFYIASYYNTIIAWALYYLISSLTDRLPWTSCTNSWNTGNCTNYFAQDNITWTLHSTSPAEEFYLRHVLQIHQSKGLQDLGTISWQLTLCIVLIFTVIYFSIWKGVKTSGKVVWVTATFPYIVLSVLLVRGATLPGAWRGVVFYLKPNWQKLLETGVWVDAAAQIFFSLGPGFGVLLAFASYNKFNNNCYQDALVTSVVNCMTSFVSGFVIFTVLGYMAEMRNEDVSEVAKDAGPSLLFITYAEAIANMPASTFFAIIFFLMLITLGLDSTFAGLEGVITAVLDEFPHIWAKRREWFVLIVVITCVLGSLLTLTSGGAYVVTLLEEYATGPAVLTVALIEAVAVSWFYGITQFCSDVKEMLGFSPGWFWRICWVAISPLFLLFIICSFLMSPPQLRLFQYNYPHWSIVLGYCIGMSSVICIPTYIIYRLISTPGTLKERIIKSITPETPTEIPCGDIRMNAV
# T2 sequence (Q63380 1-617): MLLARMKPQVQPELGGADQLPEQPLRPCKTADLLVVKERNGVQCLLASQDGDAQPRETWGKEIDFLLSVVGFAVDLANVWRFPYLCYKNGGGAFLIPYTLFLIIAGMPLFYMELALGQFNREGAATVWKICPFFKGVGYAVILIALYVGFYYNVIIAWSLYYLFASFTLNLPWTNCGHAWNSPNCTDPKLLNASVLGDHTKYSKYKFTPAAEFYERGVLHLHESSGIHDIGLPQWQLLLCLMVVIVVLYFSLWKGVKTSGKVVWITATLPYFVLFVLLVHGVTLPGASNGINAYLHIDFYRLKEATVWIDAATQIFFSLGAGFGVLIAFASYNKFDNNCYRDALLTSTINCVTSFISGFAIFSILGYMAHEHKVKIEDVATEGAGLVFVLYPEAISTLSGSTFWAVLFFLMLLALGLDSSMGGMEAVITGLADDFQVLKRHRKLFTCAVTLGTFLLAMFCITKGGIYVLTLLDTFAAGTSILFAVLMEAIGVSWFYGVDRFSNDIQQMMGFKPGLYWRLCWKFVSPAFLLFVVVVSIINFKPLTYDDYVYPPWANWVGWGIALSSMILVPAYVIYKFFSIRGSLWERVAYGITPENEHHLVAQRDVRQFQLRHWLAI
# T1 sequence (Q9EQD2 whole entry): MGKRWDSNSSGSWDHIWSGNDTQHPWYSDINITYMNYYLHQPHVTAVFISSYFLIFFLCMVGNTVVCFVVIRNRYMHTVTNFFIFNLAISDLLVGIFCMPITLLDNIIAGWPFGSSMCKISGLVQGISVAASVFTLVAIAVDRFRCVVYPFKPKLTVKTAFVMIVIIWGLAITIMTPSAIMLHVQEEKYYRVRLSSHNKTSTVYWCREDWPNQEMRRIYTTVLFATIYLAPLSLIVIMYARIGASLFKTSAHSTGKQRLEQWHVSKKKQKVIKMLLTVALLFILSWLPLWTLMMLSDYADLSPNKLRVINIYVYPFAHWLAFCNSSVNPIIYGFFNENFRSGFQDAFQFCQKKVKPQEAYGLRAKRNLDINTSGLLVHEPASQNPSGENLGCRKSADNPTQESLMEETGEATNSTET
Compound,rNPFF2 IA [1] [% NPFF],Ki [2] [nM],Ki [3] [nM],Ki [4] [nM],Ki [5] [nM],Ki [6] [nM],Ki [7] [nM]
Cc1nc(NC(=N)N)nc2ccc3ccccc3c12 [Compound 1007A],66,1940,26,5240,> 50000,2610,74
"Cc1cc(NC(=N)N)nc2ccc(Cl)cc12 [Compound 4005A, N-(6-chloro-4-methyl-2-quinolinyl)guanidine]",61,8290,2580,12300,> 50000,5050,358
